# From patent US5183821A, “Method for treating leukemias using N-(2-dimethylaminoethyl)-3-amino-1,8-naphthalimide for treating leukemias and solid tumors” (priority 1991, dated 1993)
# “Also recorded” adds a separate entry of the source.
# Legend:
# B16 Melanocarcinoma = test: Experiment 17: B16 i.p., saline with Tween-80, female; format: in vivo, Mouse B6C3F1
# Excerpt: Tumor: B16 Melanocarcinoma
# Inoculum Site: Intraperitoneal
# Tissue: Homogenate (or brei), tumor
# Vehicle: Saline with Tween-80
# (§1) Treatment schedule (relative to tumor inoculation day): daily on days 1-9
# Day of evaluation (relative to tumor inoculation day): 60
# (§2) Parameter: Median survival time (MST) in days
# (§3) NCI minimal activity criteria: Percent T/C≥125
# (§4) Percent T/C: Ratio of test (T) evaluation to control (C) evaluation expressed as a percentage
# physchem = format: physicochemical
# Procedure: While the compound was generally tested as a suspension in Tween-80, in one L1210 experiment it was tested as a solution in 0.1 N HCL diluted with saline. The level of activity (ILS=117%) was maintained. The solubilities of the compound in 0.01 N and 0.1 HCl are approximately 3 and 30 mg/ml, respectively.
# Formulation: 100 mg drug and 1 N HCl lyophilized yield the salt. The lyophilized cake dissolves in 2 ml sterile water to yield a 50 mg/ml red solution at pH 5.0-7.0.
# M5076 ovarian carcinoma = test: NCI screen, M5076 ovarian carcinoma, intraperitoneal (summary); format: in vivo, Mouse; details: for Antitumor activity in words: M5076
# Excerpt: The activity of the compound has been evaluated by experiments carried out under the auspices of the Division of Cancer Treatment, National Cancer Institute, employing techniques considered to be reliable indicators of chemotherapeutic utility in the treatment of forms of cancer in human patients. The details of the methodology employed in the reported experiments may be determined with reference to established NCI screening methods. In the experiments conducted by the NCI, evaluation of activity is made on the basis of appropriate parameters, such as median survival time (MST) or change in average tumor diameter (CATD)in ocular micrometer units (OMU).
# L-1210 Lymphoid leukemia = test: Experiment 4: L-1210 s.c., 10^5 cells, acid diluted with saline, male; format: in vivo, Mouse CD2 F1 (CDF1)
# Excerpt: Host: Mouse CD2 F1 (CDF1)
# Tumor: L-1210 Lymphoid leukemia
# Inoculum Site: Subcutaneous
# Vehicle: acid diluted with saline
# as §1
# Day of evaluation (relative to tumor inoculation day): 30
# as §2, §3, §4
# [1] = format: physicochemical
# Excerpt: (§5) Stability: The reconstituted solution is stable for 14 days at room temperature. When further diluted 200-fold with normal saline the drug remains stable for 14 days at both room and refrigeration temperatures. The reconstituted solution is not stable when further diluted with 5% dextrose in water so this vehicle will not be used for infusions of the drug. Storage: The intact vials should be stored under refrigeration.
# as §5, with “saline the drugs remains stable” for “saline the drug remains stable”
# CD2 F1 mice = test: Five daily dose (X5) mouse range-finding and lethality study; format: in vivo
# Procedure: (§6) A preclinical toxicology study of benzisoquinolinedione (NSC-308847) was done at Springborn Institute for Bioresearch, Inc. using CD2 F1 mice, Fischer 344 rats and beagle dogs. Animals were injected intravenously on a single dose (X1) or five daily dose (X5) regimen. Bulk drug was titrated with 0.5N HCl to form a salt solution of benzisoquinolinedione at a pH of 5.0-6.5. Sterile 0.9% saline was used for diluting the dosing solutions and was used for the vehicle control animals.
# (§7) The deaths generally were preceded by rough hair coat, decreased activity, hunched posture and dehydration. […] Males and females were similarily affected on both schedules.
# (§8) Defined Doses for the Five Daily Dose Mouse Lethality
# [2] = as above; format: in vivo, CD2 F1 mice; details: mouse, in vivo, iv
# Procedure: as §6, §7, §8
# Fischer 344 rats = test: Single dose rat toxicity study; format: in vivo; details: for toxicity summary, rats: single dose i.v. (X1)
# Procedure: Preclinical toxicity studies of BIDA were completed in CD2F1 Mice, Fischer 344 rats and beagle dogs (4). The animals were injected IV with a single bolus or daily for five days.
# as §6
# The following summarizes the major organ toxicities resulting from IV administration of benzisoquinolinedione to rats.
# [3] = X5, listed as benzisoquinolinedione
# [4] = 15.0 mg/kg, listed as benzisoquinolinedione
smiles,measurement,setting,value
"CN(C)CCN1C(=O)c2cccc3cc(N)cc(c23)C1=O [Example 9, 1H-Benz[de]isoquinoline-1,3(2H)-dione, 5-amino-2-[2-(dimethylamino)ethyl]]",Median survival time (MST),B16 Melanocarcinoma; 1.00 mg/kg i.p.,18.8 days
same,Percent T/C,B16 Melanocarcinoma; 1.00 mg/kg i.p.,102%
same,Median survival time (MST),B16 Melanocarcinoma; 2.00 mg/kg i.p.,17.0 days
same,Percent T/C,B16 Melanocarcinoma; 2.00 mg/kg i.p.,102%
same,Median survival time (MST),B16 Melanocarcinoma; 4.00 mg/kg i.p.,20.0 days
same,Percent T/C,B16 Melanocarcinoma; 4.00 mg/kg i.p.,120%
same,Median survival time (MST),B16 Melanocarcinoma; 8.00 mg/kg i.p.,19.4 days
same,Percent T/C,B16 Melanocarcinoma; 8.00 mg/kg i.p.,116%
same,Median survival time (MST),B16 Melanocarcinoma; 16.00 mg/kg i.p.,22.9 days
same,Percent T/C,B16 Melanocarcinoma; 16.00 mg/kg i.p.,137%
same,Median survival time (MST),B16 Melanocarcinoma; 32.00 mg/kg i.p.,7.0 days
same,solubility,physchem; 0.01 n hcl,~3 mg/mL
same,solubility,physchem; 0.1 hcl,~30 mg/mL
same,pH of reconstituted solution,physchem; lyophilized cake in 2 ml sterile water,5.0-7.0
same,Antitumor activity in words,M5076 ovarian carcinoma; listed as BIDA,Activity was seen
same,Antitumor activity in words,M5076 ovarian carcinoma; listed as the compound,activity substantially greater than the level considered to be of minimal interest; also recorded: exceeded the minimal level of activity for clinical interest
same,Table II evaluation,"M5076 ovarian carcinoma; mean survival time, 15 tests, full wrapped cell: Activity Substantially greater than the minimal",Activity
same,Median survival time (MST),L-1210 Lymphoid leukemia; 0.00 mg/kg [sic] i.p.,8.9 days
same,Percent T/C,L-1210 Lymphoid leukemia; 0.00 mg/kg [sic] i.p.,101%
same,Median survival time (MST),L-1210 Lymphoid leukemia; 5.00 mg/kg i.p.,10.4 days
same,Percent T/C,L-1210 Lymphoid leukemia; 5.00 mg/kg i.p.,118%
same,Median survival time (MST),L-1210 Lymphoid leukemia; 7.00 mg/kg i.p.,10.7 days
same,Percent T/C,L-1210 Lymphoid leukemia; 7.00 mg/kg i.p.,121%
same,Median survival time (MST),L-1210 Lymphoid leukemia; 10.00 mg/kg i.p.,12.0 days
same,Percent T/C,L-1210 Lymphoid leukemia; 10.00 mg/kg i.p.,136%
same,Median survival time (MST),L-1210 Lymphoid leukemia; 16.00 mg/kg i.p.,15.3 days
same,Percent T/C,L-1210 Lymphoid leukemia; 16.00 mg/kg i.p.,173%
same,Median survival time (MST),L-1210 Lymphoid leukemia; 24.00 mg/kg i.p.,11.0 days
same,Percent T/C,L-1210 Lymphoid leukemia; 24.00 mg/kg i.p.,125%
same,stability of reconstituted solution,[1],14 days
same,"stability, diluted 200-fold with normal saline",[1],14 days
same,"stability, diluted with 5% dextrose in water",[1],not stable
same,"body weight, mice",CD2 F1 mice; X5,Dose-related weight loss was mild to severe initially
same,"time of mortality, mice",CD2 F1 mice; [3],between days 1 and 10; also recorded: between days 6 and 10
same,"toxic signs, mice",CD2 F1 mice; [3],"labored breathing, exophthalmus, hyperextension of limbs, loss of locomotor ability, struggling, rough hair coat, huched posture, dehydration, increased irritability, decreased activity, swollen and necrotic tails, squinted eyes, prostration and moribundity; also recorded: ataxia and swollen faces with closed eyes and ocular discharge; also recorded: tail lesions which persisted to termination on day 33"
same,LD10,CD2 F1 mice; combined sexes,24.9 mg/kg/day
same,"LD10, second dose column",CD2 F1 mice; combined sexes,74.7
same,LD90,CD2 F1 mice; combined sexes,32.5 mg/kg/day
same,"LD90, second dose column",CD2 F1 mice; combined sexes,97.5
same,Slope (lethality),CD2 F1 mice; combined sexes,22.3
same,LD10,CD2 F1 mice; male,24.3 mg/kg/day
same,"LD10, second dose column",CD2 F1 mice; male,72.9
same,LD90,CD2 F1 mice; male,34.2 mg/kg/day
same,"LD90, second dose column",CD2 F1 mice; male,102.6
same,Slope (lethality),CD2 F1 mice; male,17.2
same,LD50,[2]; combined sexes,28.4 mg/kg
same,LD50,[2]; male,28.8 mg/kg
same,Mortality / lethality,"Fischer 344 rats; 15.0 mg/kg (1/2MELD10), single",0/20
same,Hematologic findings,Fischer 344 rats; [4],Mild decreases in leukocytes were seen in males on day 4; also recorded: mild decreases in reticulocytes were seen in females
same,Microscopic hematologic lesions,Fischer 344 rats; [4],mild diffuse thymic atrophy in three male rats on day 4; also recorded: No hematologic lesions were seen in either sex on day 29
same,Microscopic hematologic lesions,"Fischer 344 rats; 30.0 mg/kg, day 4 and day 29, listed as benzisoquinolinedione","moderate to marked diffuse bone marrow atrophy and mild to moderate diffuse thymic atrophy; also recorded: by day 29, no hematologic lesions were found"
same,Reproductive findings,"Fischer 344 rats; 30.0 mg/kg, day 29",All five long-term male rats showed decreased testicular weights
same,Hematologic findings,"Fischer 344 rats; 30.0 mg/kg, listed as benzisoquinolinedione","Mild decreases in hemoglobin, hematocrit and red blood cells were seen in females on days 4 and 8, but not in males; also recorded: moderate decreases in reticulocytes and leukocytes on day 4 with moderate increases following on day 8"
same,"mild diffuse testicular atrophy, incidence","Fischer 344 rats; 30.0 mg/kg, males, day 29",four of five
same,Mortality / lethality,"Fischer 344 rats; 35.0 mg/kg (MELD50), single",0/20
same,Microscopic hematologic lesions,"Fischer 344 rats; 35.0 mg/kg, day 4",marked to severe diffuse bone marrow atrophy and mild to moderate diffuse thymic atrophy
same,Reproductive findings,"Fischer 344 rats; 35.0 mg/kg, day 29, listed as benzisoquinolinedione",All five male rats showed decreased testicular weights and mild diffuse testicular atrophy; also recorded: No reproductive lesions were seen in females
same,Hematologic findings,"Fischer 344 rats; 35.0 mg/kg, listed as benzisoquinolinedione","Mild decreases in hemoglobin, hematocrit and red blood cells; also recorded: moderate decreases in reticulocytes in both sexes on day 4, followed by moderate increases on day 8; also recorded: Leukopenia (both lymphocytes and neutrophils); also recorded: Both sexes were comparable to controls on days 22 and 29"
same,Mortality / lethality,"Fischer 344 rats; MELD10, single, 30.0 mg/kg in text, 20.00 in Table 4",0/20
same,"toxicity summary, rats",Fischer 344 rats; listed as BIDA,reproductive system toxicity was seen at doses of MELD 10 and higher; also recorded: decreased testicular weights and mild diffuse testicular atrophy
same,"toxicity summary, rats",Fischer 344 rats; listed as benzisoquinolinedione,"toxic on both schedules (X1, X5) to the hematopoietic system and to the male reproductive system"
